Test results from patent EP0410278A1, “Renin inhibiting aminooligohydroxy-derivatives” (HOECHST AKTIENGESELLSCHAFT, priority 1989, dated 1991).

Tested on: Rhesusaffen
Test: In vivo test in furosemide-pretreated, anaesthetised rhesus monkeys: blood pressure, heart rate, plasma renin activity
Settings: 2 mg/kg i.d. (in 0,1 n Zitronensäure 2 mg/ml); for Änderung PRA [%]: Plasma-Renin-Aktivität
Description: Renin-Hemmer bewirken an salzverarmten Tieren eine Blutdrucksenkung. Da sich menschliches Renin von dem Renin anderer Spezies unterscheidet, werden zum in-vivo-Test von Renin-Hemmern Primaten, wie zum Beispiel Rhesus-Affen, herangezogen.
Primaten-Renin und Human-Renin sind in ihrer Sequenz weitgehend homolog. Durch i.v. Injektion von Furosemid wird eine endogene Renin-Ausschüttung angeregt. Anschließend werden die Testverbindungen verabreicht und ihre Wirkung auf Blutdruck und Herzfrequenz wird gemessen.
6 Rhesusaffen wurden an 6 aufeinanderfolgenden Tagen mit 10 mg/kg·d Furosemid oral vorbehandelt. Am 7. Tag wurden etwa 30 Minuten vor Versuchsbeginn weitere 10 mg/kg Furosemid i.v. verabreicht. Anschließend wurde die Anästhesie mit 20 mg/kg Ketamin i.m. eingeleitet und mit 40 mg/kg Pentobarbiton i.v. fortgesetzt. Ein Seitenarm der Femoralarterie wurde freipräpariert und zur Blutdruckmessung mittels eines Blutdruck-Wandlers (P 23 ID) kanuliert. Blutproben zur Bestimmung der Plasma-Renin-Aktivität wurden über eine Braunüle in der Saphena-Vene abgenommen.
Die Titelverbindung des Beispiels 2 zeigt folgendes Ergebnis: 2 mg/kg i.d. (in 0,1 n Zitronensäure 2 mg/ml)

CC(C)(C)S(=O)(=O)CC(Cc1ccccc1)C(=O)NC(Cc1c[nH]cn1)C(=O)NC(CC1CCCCC1)C(O)C(O)C(O)C(O)CO [Beispiel 2, (2(S)-Benzyl,3-t-butylsulfonyl)propionyl-His-[(D)-Manno-Pentol]]
Blutdruck-Änderung [%] (t 1 min): -0,72% | Puls-Änderung [%] (t 1 min): -1,16% | Blutdruck-Änderung [%] (t 3 min): -8,21% | Puls-Änderung [%] (t 3 min): -1,61% | Blutdruck-Änderung [%] (t 5 min): -11,53% | Puls-Änderung [%] (t 5 min): -2,42% | Blutdruck-Änderung [%] (t 10 min): -11,82% | Puls-Änderung [%] (t 10 min): -2,51% | Blutdruck-Änderung [%] (t 15 min): -12,68% | Puls-Änderung [%] (t 15 min): -3,49% | Blutdruck-Änderung [%] (t 20 min): -13,48% | Puls-Änderung [%] (t 20 min): -1,97% | Blutdruck-Änderung [%] (t 30 min): -16,43% | Puls-Änderung [%] (t 30 min): -1,61% | Blutdruck-Änderung [%] (t 45 min): -12,82% | Puls-Änderung [%] (t 45 min): +0,09% | Blutdruck-Änderung [%] (t 60 min): -13,98% | Puls-Änderung [%] (t 60 min): -0,09% | Puls-Änderung [%] (t 75 min): +1,16% | Puls-Änderung [%] (t 90 min): +3,04% | Änderung PRA [%] (t 15 min): -20% | Änderung PRA [%] (t 30 min): -62% | Änderung PRA [%] (t 45 min): -53% | Änderung PRA [%] (t 60 min): -58% | Änderung PRA [%] (t 90 min): -51% | Änderung PRA [%] (t 120 min): -47%
